From patent publication US20230405130A1, “COMPOSITIONS AND METHODS FOR MODIFYING BACTERIAL GENE EXPRESSION” (priority 2020, published 2023)

Legend:
dnaE = dnaE expression after anti-dnaE oligonucleotide treatment (immunoblotting); assay type: cell-based, C. difficile; conditions: FIG. 2
Procedure: Studies were performed to identify C. difficile gene targets with the least pathway redundancy, while ensuring ASO specificity (oligonucleotides ≥25 bp in length). […] Five candidate C. difficile gene targets were identified, and dnaE (which encodes the alpha subunit of DNA polymerase III, and is invariant in C. difficile strains) harbored the most favorable translation inhibition potential (confirmed via immunoblotting; FIG. 2). Thus, it was used in further experiments. Specifically, the ASO formulation is a 2′-O-methyl phosphorothioate (PTO) gapmer, which has a good safety record (Shen et al., Antisense Nucleic Acid Drug Dev. 2001 August; 11(4):257-64; Chen et al., Transplantation. 2005 Feb. 27; 79(4):401-8; Nomura et al., Int J Pharm. 2018 Aug. 25; 547(1-2):556-562.).

Water solubility = assay type: physicochemical; conditions: room temperature
[1] = tested on: Ribotype 027 C. difficile strain; assay: In vitro anti-C. difficile activity / MIC; assay type: cell-based; conditions: FIG. 3 legend
Procedure: (§1) Nanocomplex CAB-964 was complexed to the anti-dnaE ASO (SEQ ID NO:1) as previously described (Hegarty et al., Int J Nanomedicine. 2016 Aug. 1; 11:3607-19; Sharma et al., J Antibiot (Tokyo). 2018 August; 71(8):713-721; herein incorporated by reference in its entirety) and the resulting nanocomplex is called SRPNT. Multiple in vitro tests were performed with SRPNT as well as its parent empty CAB, with CAB CYDE-21 and its derived nanocomplex as comparators. For the pathogen (Hegarty 2016, supra; Sharma 2018, supra) a whole genome-sequenced Ribotype 027 C. difficile strain associated with severe, complicated CDI in human subjects was used.

E. faecalis = assay: In vitro growth of commensal bacteria: E. faecalis; assay type: cell-based; conditions: only at >17× the dosing range to treat C. difficile
Procedure: as §1

E. coli = assay: In vitro growth of commensal bacteria: E. coli; assay type: cell-based; conditions: only at >17× the dosing range to treat C. difficile
Procedure: as §1

B. fragilis = assay: In vitro growth of commensal bacteria: B. fragilis; assay type: cell-based; conditions: only at >17× the dosing range to treat C. difficile
Procedure: as §1

[2] = tested on: cultured human intestinal epithelial cells; assay: Toxicity to cultured human intestinal epithelial cells; assay type: cell-based; conditions: at the doses used for C. difficile inhibition

Row | Compound | dnaE expression (dnaE) | solubility (Water solubility) [mg/mL] | anti-C. difficile activity [1] | growth reduction of E. faecalis (E. faecalis) [%] | growth reduction of E. coli (E. coli) [%] | growth reduction of B. fragilis (B. fragilis) [%] | toxicity to cultured human intestinal epithelial cells [2]
1 | 5′-G*T*T*C*A*T*TAAA TCACC TCC T*G*C*T*T*T*A3′ (GTTCATTAAATCACCTCCTGCTTT; listed as DNA, chemistry not fully specified) [anti-dnaE oligonucleotide, 2′-O-methyl phosphorothioate (PTO) gapmer ASO targeting dnaE] | decreases dnaE expression | – | – | – | – | – | –
2 | c1cc2c([n+](CCCCCCCCCC[n+]3cccc4c3CCCC4)c1)CCCC2 [CAB-964] | – | 26 | no anti-C. difficile activity | 7 | 7 | 7 | non-toxic
